{"source": "ChEMBL document CHEMBL1151563", "about": "“Synthesis of sialic acid-lipid conjugates and their neuritogenic effects on N1E.115 neuroblastoma cells” (1995)", "key": {"[1]": {"test_system": "N1E-115", "test": "Effect of compound on neurite outgrowth by measuring presence of cytoskeletal component in neurofilament (NF) ELISA assay at 1 uM; value ranges from 95-105", "type": "functional, Mus musculus"}, "[2]": {"test_system": "N1E-115", "test": "Effect of compound on neurite outgrowth by measuring presence of cytoskeletal component in neurofilament (NF) ELISA assay at 3 uM; value ranges from 95-105", "type": "functional, Mus musculus"}, "[3]": {"test_system": "N1E-115", "test": "Neuritogenic activity of compound was determined at 1 uM; value ranges from 95-105", "type": "functional, Mus musculus"}, "[4]": {"test_system": "N1E-115", "test": "Neuritogenic activity of compound was determined at 3 uM; value ranges from 95-105", "type": "functional, Mus musculus"}, "[5]": {"test": "NF/NR ratio is average amount of neurofilament per cell was determined at 1 uM; value ranges from 95-105", "type": "functional"}, "[6]": {"test": "NF/NR ratio is average amount of neurofilament per cell was determined at 3 uM; value ranges from 95-105", "type": "functional"}, "[7]": {"test_system": "N1E-115", "test": "In neutral red (NR) assay the cell number relative to control was determined at 1 uM; value ranges from 75-85", "type": "functional, Mus musculus"}, "[8]": {"test_system": "N1E-115", "test": "In neutral red (NR) assay the cell number relative to control was determined at 3 uM; value ranges from 75-85", "type": "functional, Mus musculus"}, "[9]": {"test_system": "N1E-115", "test": "Neuritogenic activity of compound was determined at 1 uM; value ranges from 105-115", "type": "functional, Mus musculus"}, "[10]": {"test_system": "N1E-115", "test": "Neuritogenic activity of compound was determined at 3 uM; value ranges from 115-125", "type": "functional, Mus musculus"}, "[11]": {"test": "NF/NR ratio is average amount of neurofilament per cell was determined at 1 uM; value ranges from 105-115", "type": "functional"}, "[12]": {"test": "NF/NR ratio is average amount of neurofilament per cell was determined at 3 uM; value ranges from 115-125", "type": "functional"}, "[13]": {"test_system": "N1E-115", "test": "Neuritogenic activity of compound was determined at 3 uM; value ranges from 125-135", "type": "functional, Mus musculus"}, "[14]": {"test": "NF/NR ratio is average amount of neurofilament per cell was determined at 3 uM; value ranges from 125-135", "type": "functional"}, "[15]": {"test_system": "N1E-115", "test": "Effect of compound on neurite outgrowth by measuring presence of cytoskeletal component in neurofilament (NF) ELISA assay at 3 uM; value ranges from 75-85", "type": "functional, Mus musculus"}, "[16]": {"test_system": "N1E-115", "test": "In neutral red (NR) assay the cell number relative to control was determined at 1 uM; value ranges from 95-105", "type": "functional, Mus musculus"}, "[17]": {"test_system": "N1E-115", "test": "In neutral red (NR) assay the cell number relative to control was determined at 3 uM; value ranges from 65-75", "type": "functional, Mus musculus"}, "[18]": {"test_system": "N1E-115", "test": "Neuritogenic activity of compound was determined at 3 uM; value ranges from 105-115", "type": "functional, Mus musculus"}, "[19]": {"test": "NF/NR ratio is average amount of neurofilament per cell was determined at 3 uM; value ranges from 105-115", "type": "functional"}}}
{"smiles": "CC(C)CCC[C@@H](C)[C@H]1CCC2C3CC=C4CC(C(C(=O)O)C(=O)O)CC[C@]4(C)C3CC[C@@]21C", "note": "(some centres undefined)", "values": [{"measurement": "Activity", "setting": "[1]", "value": 95, "unit": "%"}, {"measurement": "Activity", "setting": "[2]", "value": 95, "unit": "%"}, {"measurement": "Activity", "setting": "[3]", "value": 95, "unit": "%"}, {"measurement": "Activity", "setting": "[4]", "value": 95, "unit": "%"}, {"measurement": "Ratio", "setting": "[5]", "value": 95}, {"measurement": "Ratio", "setting": "[6]", "value": 95}]}
{"smiles": "CC(=O)NC1C(O)CC(OCCCOCOC2CC[C@@]3(C)C(=CCC4[C@@H]5CC[C@H]([C@@H](C)CCCC(C)C)[C@@]5(C)CC[C@@H]43)C2)(C(=O)[O-])OC1[C@@H](O)[C@H](O)CO.[Na+]", "note": "(some centres undefined)", "values": [{"measurement": "Activity", "setting": "[1]", "value": 95, "unit": "%"}, {"measurement": "Activity", "setting": "[2]", "value": 95, "unit": "%"}, {"measurement": "Activity", "setting": "[7]", "value": 75, "unit": "%"}, {"measurement": "Activity", "setting": "[8]", "value": 75, "unit": "%"}, {"measurement": "Activity", "setting": "[9]", "value": 105, "unit": "%"}, {"measurement": "Activity", "setting": "[10]", "value": 115, "unit": "%"}, {"measurement": "Ratio", "setting": "[11]", "value": 105}, {"measurement": "Ratio", "setting": "[12]", "value": 115}]}
{"smiles": "CC(=O)NC1C(O)CC(OCCCOCOCC(COCOCCCOC2(C(=O)[O-])CC(O)C(NC(C)=O)C([C@@H](O)[C@H](O)CO)O2)(COCOCCCOC2(C(=O)[O-])CC(O)C(NC(C)=O)C([C@@H](O)[C@H](O)CO)O2)CO[C@H]2CCC3(C)C(=CCC4[C@@H]3CCC3(C)[C@@H](C(C)CCCC(C)C)CC[C@@H]43)C2)(C(=O)[O-])OC1[C@@H](O)[C@H](O)CO.[Na+].[Na+].[Na+]", "note": "(some centres undefined)", "values": [{"measurement": "Activity", "setting": "[1]", "value": 95, "unit": "%"}, {"measurement": "Activity", "setting": "[2]", "value": 95, "unit": "%"}, {"measurement": "Activity", "setting": "[8]", "value": 85, "unit": "%"}, {"measurement": "Activity", "setting": "[9]", "value": 105, "unit": "%"}, {"measurement": "Activity", "setting": "[13]", "value": 125, "unit": "%"}, {"measurement": "Ratio", "setting": "[11]", "value": 105}, {"measurement": "Ratio", "setting": "[14]", "value": 125}]}
{"smiles": "CC(=O)NC1C(O)CC(OC2CC[C@@]3(C)C(=CCC4[C@@H]5CC[C@H]([C@@H](C)CCCC(C)C)[C@@]5(C)CC[C@@H]43)C2)(C(=O)[O-])OC1[C@@H](O)[C@H](O)CO.[Na+]", "note": "(some centres undefined)", "values": [{"measurement": "Activity", "setting": "[1]", "value": 95, "unit": "%"}, {"measurement": "Activity", "setting": "[15]", "value": 75, "unit": "%"}, {"measurement": "Activity", "setting": "[16]", "value": 95, "unit": "%"}, {"measurement": "Activity", "setting": "[17]", "value": 65, "unit": "%"}, {"measurement": "Activity", "setting": "[3]", "value": 95, "unit": "%"}, {"measurement": "Activity", "setting": "[18]", "value": 105, "unit": "%"}, {"measurement": "Ratio", "setting": "[5]", "value": 95}, {"measurement": "Ratio", "setting": "[19]", "value": 105}]}
{"smiles": "CCCCCCCCCCCCCCCCOC1(C(=O)[O-])CC(O)C(NC(C)=O)C([C@@H](O)[C@H](O)CO)O1.[Na+]", "note": "(some centres undefined)", "values": [{"measurement": "Activity", "setting": "[1]", "value": 95, "unit": "%"}, {"measurement": "Activity", "setting": "[2]", "value": 95, "unit": "%"}, {"measurement": "Activity", "setting": "[7]", "value": 75, "unit": "%"}, {"measurement": "Activity", "setting": "[8]", "value": 75, "unit": "%"}, {"measurement": "Activity", "setting": "[9]", "value": 105, "unit": "%"}, {"measurement": "Activity", "setting": "[18]", "value": 105, "unit": "%"}, {"measurement": "Ratio", "setting": "[11]", "value": 105}, {"measurement": "Ratio", "setting": "[19]", "value": 105}]}
{"smiles": "CCCCCCCCCCCCCCCCOCOCCCO[C@]1(C(=O)O)C[C@@H](O)[C@@H](NC(C)=O)C([C@@H](O)[C@H](O)CO)O1", "note": "(some centres undefined)", "values": [{"measurement": "Activity", "setting": "[1]", "value": 95, "unit": "%"}, {"measurement": "Activity", "setting": "[2]", "value": 95, "unit": "%"}, {"measurement": "Activity", "setting": "[16]", "value": 95, "unit": "%"}, {"measurement": "Activity", "setting": "[3]", "value": 95, "unit": "%"}, {"measurement": "Activity", "setting": "[18]", "value": 105, "unit": "%"}, {"measurement": "Ratio", "setting": "[5]", "value": 95}, {"measurement": "Ratio", "setting": "[19]", "value": 105}]}
